A value given as a limit tells only on which side of the number the result lay.

What all share (format): biochemical
One experiment concerns the target Pim-2 (Homo sapiens (Human), UniProt Q9P1W9). Description: Pim-2 kinase assay. As to conditions: 1 mM ATP; read-out: PIM2 IC50. The method, boiled down: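 TR-FRET assay with 1 nM enzyme, 0.05 μM fluorescein-CREBtide and 1 mM ATP in Tris pH 7.5 buffer with MgCl2, DTT, BSA and Tween-20, run 2 h at 25° C. Stopped with EDTA and Tb-labelled anti-CREB pSer133 antibody, then read after 30 min at room temperature.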

Another experiment concerns the target Pim-1 (Homo sapiens (Human), UniProt P11309). Put plainly: Pim-1 kinase assay. As to conditions: 1 mM ATP; read-out: PIM1 IC50. The procedure, abridged: (§1)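 Biotin-BAD peptide (0.05 μM) phosphorylated with 1 mM ATP by 2.5 pM Pim-1 or 1.25 pM Pim-3 in Tris pH 7.5/MgCl2/DTT buffer, 1 h at 25° C. EDTA stop; phospho-BAD (Ser112) antibody with streptavidin donor and Protein-A acceptor beads, 1 h dark at room temperature before AlphaScreen-type bead read.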

The target in a further experiment is Pim-3 (Homo sapiens (Human), UniProt Q86V86). Description: Pim-3 kinase assay. As to conditions: 1 mM ATP; read-out: PIM3 IC50. The method, boiled down: as §1

Chain of Pim-2 (Q9P1W9 whole entry): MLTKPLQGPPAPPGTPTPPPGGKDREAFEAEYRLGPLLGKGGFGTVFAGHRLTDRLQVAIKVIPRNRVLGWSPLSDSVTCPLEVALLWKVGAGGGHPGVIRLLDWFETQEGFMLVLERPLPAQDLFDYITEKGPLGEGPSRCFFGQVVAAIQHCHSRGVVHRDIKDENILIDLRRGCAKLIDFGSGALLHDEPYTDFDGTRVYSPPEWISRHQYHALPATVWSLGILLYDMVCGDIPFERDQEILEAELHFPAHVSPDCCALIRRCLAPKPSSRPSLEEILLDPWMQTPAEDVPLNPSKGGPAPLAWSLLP
Chain of Pim-1 (P11309 whole entry): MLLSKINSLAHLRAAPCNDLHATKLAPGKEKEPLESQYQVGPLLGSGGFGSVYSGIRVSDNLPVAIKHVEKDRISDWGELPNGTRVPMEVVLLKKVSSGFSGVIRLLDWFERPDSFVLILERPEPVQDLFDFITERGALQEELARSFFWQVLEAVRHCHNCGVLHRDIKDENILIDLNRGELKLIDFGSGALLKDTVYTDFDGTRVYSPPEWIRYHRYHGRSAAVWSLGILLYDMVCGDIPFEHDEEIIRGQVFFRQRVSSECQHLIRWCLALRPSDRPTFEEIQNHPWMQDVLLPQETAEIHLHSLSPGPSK

Turning to `C[C@@H]1C[C@H](N)C[C@H](c2ccncc2NC(=O)c2ccc(F)c3cc(N4CCC4)cnc23)C1` [Example 4, N-{4-[(1R,3S,5S)-3-Amino-5-methylcyclohexyl]pyridin-3-yl}-3-azetidin-1-yl-5-fluoroquinoline-8-carboxamide], the IC50 on Pim-2 is 100 to 1000 nM; on Pim-1, ≤ 10 nM; on Pim-3, 10 to 50 nM.

Consider `C[C@@H]1C[C@H](N)C[C@H](c2ccncc2NC(=O)c2ccc(F)c3cc(N[C@@H](C)C4CC4)cnc23)C1` [Example 52, N-(4-((1R,3S,5S)-3-Amino-5-methylcyclohexyl)pyridin-3-yl)-3-((S)-1-cyclopropylethylamino)-5-fluoroquinoline-8-carboxamide], for which the figures for the IC50 on Pim-2, on Pim-1 and on Pim-3 were 1000 to 10000 nM, ≤ 10 nM and 10 to 50 nM, respectively.

As to `C[C@@H]1C[C@H](N)C[C@H](c2ccncc2NC(=O)c2ccc(F)c3cc(N4CC[C@@H]4C)cnc23)C1` [Example 166, N-(4-((1R,3S,5S)-3-Amino-5-methylcyclohexyl)pyridin-3-yl)-5-fluoro-3-((S)-2-methylazetidin-1-yl)quinoline-8-carboxamide], the IC50 on Pim-2 was ≤ 100 nM; at Pim-1, ≤ 10 nM; on Pim-3, ≤ 10 nM.

As for `C[C@@H]1C[C@H](N)C[C@H](c2ccncc2NC(=O)c2ccc(F)c3cc(N4CCCC(F)(F)C4)cnc23)C1` [Example 28, N-{4-[(1R,3S,5S)-3-Amino-5-methylcyclohexyl]pyridin-3-yl}-3-(3,3-difluoropiperidin-1-yl)-5-fluoroquinoline-8-carboxamide], the IC50 on Pim-2 was ≤ 100 nM; at Pim-1, ≤ 10 nM; at Pim-3, ≤ 10 nM.

As for `C[C@@H]1C[C@H](N)C[C@H](c2ccncc2NC(=O)c2ccc(F)c3cc(N4CCC[C@H](C)C4)cnc23)C1` [Example 113, N-(4-((1R,3S,5S)-3-Amino-5-methylcyclohexyl)pyridin-3-yl)-5-fluoro-3-((S)-3-methylpiperidin-1-yl)quinoline-8-carboxamide], the IC50 was ≤ 100 nM at Pim-2, ≤ 10 nM on Pim-1 and ≤ 10 nM at Pim-3.

`C[C@@H]1C[C@H](N)C[C@H](c2ccncc2NC(=O)c2ccc(F)c3cc(N4CCCCO4)cnc23)C1` [Example 109, N-(4-((1R,3S,5S)-3-amino-5-methylcyclohexyl)pyridin-3-yl)-5-fluoro-3-(1,2-oxazinan-2-yl)quinoline-8-carboxamide]: the IC50 on Pim-2 is ≤ 100 nM; at Pim-1, ≤ 10 nM; at Pim-3, ≤ 10 nM.

With `CC(C)[C@H](C)Nc1cnc2c(C(=O)Nc3cnccc3[C@@H]3C[C@H](C)C[C@H](N)C3)ccc(F)c2c1` [Example 53, N-(4-((1R,3S,5S)-3-Amino-5-methylcyclohexyl)pyridin-3-yl)-5-fluoro-3-((S)-3-methylbutan-2-ylamino)quinoline-8-carboxamide], the IC50 was 100 to 1000 nM on Pim-2, ≤ 10 nM at Pim-1 and ≤ 10 nM at Pim-3.

Turning to `COCCO[C@H]1CCN(c2cnc3c(C(=O)Nc4cnccc4[C@@H]4C[C@H](C)C[C@H](N)C4)ccc(F)c3c2)C[C@@H]1F` [Example 163], the IC50 was ≤ 100 nM at Pim-2, ≤ 10 nM at Pim-1 and ≤ 10 nM on Pim-3.

Consider `CO[C@H]1C[C@H](C)N(c2cnc3c(C(=O)Nc4cnccc4[C@@H]4C[C@H](C)C[C@H](N)C4)ccc(F)c3c2)C1` [Example 157, N-(4-((1R,3S,5S)-3-Amino-5-methylcyclohexyl)pyridin-3-yl)-5-fluoro-3-((2S,4S)-4-methoxy-2-methylpyrrolidin-1-yl)quinoline-8-carboxamide], for which the IC50 was ≤ 100 nM at Pim-2, ≤ 10 nM on Pim-1 and ≤ 10 nM at Pim-3.

As to `COC(=O)N1CCN(c2cnc3c(C(=O)Nc4cnccc4[C@@H]4C[C@H](C)C[C@H](N)C4)ccc(F)c3c2)[C@H](C)C1` [Example 89, (R)-Methyl 4-(8-(4-((1R,3S,5S)-3-amino-5-methylcyclohexyl)pyridin-3-ylcarbamoyl)-5-fluoroquinolin-3-yl)-3-methylpiperazine-1-carboxylate], the IC50 on Pim-2 is ≤ 100 nM; at Pim-1, ≤ 10 nM; on Pim-3 it was ≤ 10 nM.

On to `C[C@@H]1C[C@H](N)C[C@H](c2ccncc2NC(=O)c2ccc(F)c3cc(N4C[C@@H](O)C[C@@H]4C)cnc23)C1` [Example 165, N-(4-((1R,3S,5S)-3-Amino-5-methylcyclohexyl)pyridin-3-yl)-5-fluoro-3-((2S,4S)-4-hydroxy-2-methylpyrrolidin-1-yl)quinoline-8-carboxamide], for which the IC50 on Pim-2 is ≤ 100 nM; at Pim-1, ≤ 10 nM; on Pim-3, ≤ 10 nM.

For `CO[C@H]1C[C@@H](C)N(c2cnc3c(C(=O)Nc4cnccc4[C@@H]4C[C@H](C)C[C@H](N)C4)ccc(F)c3c2)C1` [Example 158, N-(4-((1R,3S,5S)-3-Amino-5-methylcyclohexyl)pyridin-3-yl)-5-fluoro-3-((2R,4S)-4-methoxy-2-methylpyrrolidin-1-yl)quinoline-8-carboxamide], the IC50 at Pim-2 was ≤ 100 nM; on Pim-1, ≤ 10 nM; at Pim-3, ≤ 10 nM.

Take `C[C@@H]1C[C@H](N)C[C@H](c2ccncc2NC(=O)c2ccc(F)c3cc(N4CC[C@@H](F)C4)cnc23)C1` [Example 6, N-{4-[(1R,3S,5S)-3-Amino-5-methylcyclohexyl]pyridin-3-yl}-5-fluoro-3-[(3R)-3-fluoropyrrolidin-1-yl]quinoline-8-carboxamide]: the IC50 on Pim-2 is ≤ 100 nM; on Pim-1 it was ≤ 10 nM; on Pim-3 it was ≤ 10 nM.

In the case of `C[C@@H]1C[C@H](N)C[C@H](c2ccncc2NC(=O)c2ccc(F)c3cc(N4CCc5cnn(C)c5C4)cnc23)C1` [Example 127, N-(4-((1R,3S,5S)-3-Amino-5-methylcyclohexyl)pyridin-3-yl)-5-fluoro-3-(1-methyl-4,5-dihydro-1H-pyrazolo[3,4-c]pyridin-6(7H)-yl)quinoline-8-carboxamide], the half-maximal inhibitory concentration (IC50) on Pim-2 was ≤ 100 nM; at Pim-1, ≤ 10 nM; at Pim-3 it was ≤ 10 nM.

In the case of `C[C@@H]1C[C@H](N)C[C@H](c2ccncc2NC(=O)c2ccc(F)c3cc(Nc4ccccc4C#N)cnc23)C1` [Example 129, N-(4-((1R,3S,5S)-3-Amino-5-methylcyclohexyl)pyridin-3-yl)-3-(2-cyanophenylamino)-5-fluoroquinoline-8-carboxamide], the values for the IC50 at Pim-2, at Pim-1 and at Pim-3 were 100 to 1000 nM, ≤ 10 nM and ≤ 10 nM, respectively.

Consider `C[C@@H]1C[C@H](N)C[C@H](c2ccncc2NC(=O)c2ccc(F)c3cc(-c4ccc(F)c5cccnc45)cnc23)C1` [Example 60, N-(4-((1R,3S,5S)-3-Amino-5-methylcyclohexyl)pyridin-3-yl)-5,5′-difluoro-3,8′-biquinoline-8-carboxamide], for which the IC50 is 1000 to 10000 nM at Pim-2, ≤ 10 nM on Pim-1 and 10 to 50 nM at Pim-3.

For `C[C@@H]1C[C@H](N)C[C@H](c2ccncc2NC(=O)c2cccc3cc(N4CCC[C@H]4C)cnc23)C1` [Example 68, N-(4-((1R,3S,5S)-3-Amino-5-methylcyclohexyl)pyridin-3-yl)-3-((R)-2-methylpyrrolidin-1-yl)quinoline-8-carboxamide], the IC50 is ≤ 100 nM on Pim-2, ≤ 10 nM on Pim-1 and ≤ 10 nM at Pim-3.

Regarding `COC[C@H]1CCCN1c1cnc2c(C(=O)Nc3cnccc3[C@@H]3C[C@H](C)C[C@H](N)C3)ccc(F)c2c1` [Example 47, N-(4-((1R,3S,5S)-3-Amino-5-methylcyclohexyl)pyridin-3-yl)-5-fluoro-3-OR)-2-(methoxymethyl)pyrrolidin-1-yl)quinoline-8-carboxamide], the results for the IC50 on Pim-2, at Pim-1 and at Pim-3 were ≤ 100 nM, ≤ 10 nM and ≤ 10 nM, respectively.

In the case of `C[C@@H]1C[C@H](N)C[C@H](c2ccncc2NC(=O)c2ccc(F)c3cc(N4CCOc5cccc(F)c54)cnc23)C1` [Example 120, N-(4-((1R,3S,5S)-3-Amino-5-methylcyclohexyl)pyridin-3-yl)-5-fluoro-3-(5-fluoro-2H-benzo[b][1,4]oxazin-4(3H)-yl)quinoline-8-carboxamide], the IC50 on Pim-2 is ≤ 100 nM; at Pim-1, ≤ 10 nM; on Pim-3 it was ≤ 10 nM.

For the compound `COCCN1CCN(c2cnc3c(C(=O)Nc4cnccc4[C@@H]4C[C@H](C)C[C@H](N)C4)ccc(F)c3c2)CC1=O` [Example 133, N-(4-((1R,3S,5S)-3-Amino-5-methylcyclohexyl)pyridin-3-yl)-5-fluoro-3-(4-(2-methoxyethyl)-3-oxopiperazin-1-yl)quinoline-8-carboxamide], the IC50 on Pim-2 was 100 to 1000 nM; on Pim-1, ≤ 10 nM; on Pim-3 it was ≤ 10 nM.

With `C[C@@H]1C[C@H](N)C[C@H](c2ccncc2NC(=O)c2ccc(F)c3cc(N4CC(F)C4)cnc23)C1` [Example 9, N-{4-[(1R,3S,5S)-3-Amino-5-methylcyclohexyl]pyridin-3-yl}-5-fluoro-3-(3-fluoroazetidin-1-yl)quinoline-8-carboxamide], the IC50 was 100 to 1000 nM at Pim-2, ≤ 10 nM at Pim-1 and ≤ 10 nM at Pim-3.

In the case of `C[C@@H]1C[C@H](N)C[C@H](c2ccncc2NC(=O)c2ccc(F)c3cc(N4CC(=O)N5CCCC[C@@H]5C4)cnc23)C1` [Example 100, N-(4-((1R,3S,5S)-3-Amino-5-methylcyclohexyl)pyridin-3-yl)-5-fluoro-3-((R)-4-oxodihydro-1H-pyrido[1,2-a]pyrazin-2(6H,7H,8H,9H,9aH)-yl)quinoline-8-carboxamide], the values for the IC50 at Pim-2, at Pim-1 and on Pim-3 were ≤ 100 nM, ≤ 10 nM and ≤ 10 nM, respectively.

Usually IC50 stands for the point on the concentration scale where inhibition reaches its midpoint.
